Legend:
Assay in all cases: relative viability (nuclei count vs DMSO), 5 days (fraction); higher = more cells survive
Kobe2602 + OSI-027 = compound: C1=CC(=CC=C1NC(=S)NNC2=C(C=C(C=C2[N+](=O)[O-])C(F)(F)F)[N+](=O)[O-])F [Kobe2602] + COc1cccc2cc(-c3nc([C@H]4CC[C@H](C(=O)O)CC4)n4ncnc(N)c34)[nH]c12 [OSI-027] (partner 0.5 µM)
Method in brief: (§1)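 Lung cancer cell lines, seeded in 1536-well plates, were treated the following day by pin tool with a single drug or with five library-drug doses (not always all listed) in √10 steps on top of a fixed anchor-drug dose. Cells were fixed and nuclei stained in one step after 5 days, and nuclei were counted. Relative viability is the nuclei count for treated wells divided by that for vehicle wells, reported as medians of duplicate plates.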

Kobe2602 + Decitabine = compound: C1=CC(=CC=C1NC(=S)NNC2=C(C=C(C=C2[N+](=O)[O-])C(F)(F)F)[N+](=O)[O-])F [Kobe2602] + Nc1ncn([C@H]2C[C@H](O)[C@@H](CO)O2)c(=O)n1 [Decitabine] (partner 2 µM)
Method in brief: as §1

[1] = compound: COc1cc2nccc(Oc3ccc(NC(=O)C4(C(=O)Nc5ccc(F)cc5)CC4)cc3)c2cc1OC [Cabozantinib] + CC1(C)CCC(c2ccc(Cl)cc2)=C(CN2CCN(c3ccc(C(=O)NS(=O)(=O)c4ccc(N[C@H](CCN5CCOCC5)CSc5ccccc5)c(S(=O)(=O)C(F)(F)F)c4)cc3)CC2)C1 [Navitoclax] (partner 0.5 µM)
Method in brief: as §1

Cabozantinib + AZD7762 = compound: COc1cc2nccc(Oc3ccc(NC(=O)C4(C(=O)Nc5ccc(F)cc5)CC4)cc3)c2cc1OC [Cabozantinib] + NC(=O)Nc1cc(-c2cccc(F)c2)sc1C(=O)N[C@H]1CCCNC1 [AZD7762] (partner 0.2 µM)
Method in brief: as §1

Cell Line	relative viability (Kobe2602 + OSI-027; first compound 0.2 µM)	relative viability (Kobe2602 + OSI-027; first compound 0.6325 µM)	relative viability (Kobe2602 + OSI-027; first compound 2 µM)	relative viability (Kobe2602 + OSI-027; first compound 6.325 µM)	relative viability (Kobe2602 + OSI-027; first compound 20 µM)	relative viability (Kobe2602 + Decitabine; first compound 0.2 µM)	relative viability (Kobe2602 + Decitabine; first compound 0.6325 µM)	relative viability (Kobe2602 + Decitabine; first compound 2 µM)	relative viability (Kobe2602 + Decitabine; first compound 6.325 µM)	relative viability (Kobe2602 + Decitabine; first compound 20 µM)	relative viability ([1]; first compound 0.02 µM)	relative viability ([1]; first compound 0.06325 µM)	relative viability ([1]; first compound 0.2 µM)	relative viability ([1]; first compound 0.6325 µM)	relative viability ([1]; first compound 2 µM)	relative viability (Cabozantinib + AZD7762; first compound 0.02 µM)	relative viability (Cabozantinib + AZD7762; first compound 0.06325 µM)	relative viability (Cabozantinib + AZD7762; first compound 0.6325 µM)	relative viability (Cabozantinib + AZD7762; first compound 2 µM)	relative viability (Cabozantinib + AZD7762; first compound 0.2 µM)
NCI-H1793	0.252	0.218	0.238	0.275	0.327	0.482	0.485	0.656	0.664	0.472	0.477	0.514	0.267	0.235	0.29	0.413	0.625	0.579	0.17	–
NCI-H1666	0.879	0.831	0.851	0.928	0.789	0.725	0.693	0.69	0.724	0.812	0.889	1.16	0.887	0.996	1.13	0.712	1.02	0.921	0.814	0.763
HARA	0.59	0.547	0.407	0.542	0.524	0.566	0.591	0.5	0.537	0.499	1.17	1.16	1.12	1.19	1.17	0.291	0.332	0.339	0.301	–
NCI-H3122	0.902	0.903	0.957	0.853	1.12	0.46	0.496	0.471	0.402	0.391	0.988	1.03	0.987	1.03	1.02	1.04	1.05	0.941	1.03	1.03
201T	0.815	0.802	0.764	–	0.603	0.89	0.892	0.872	0.949	0.876	1.2	1.25	1.19	1.2	1.24	0.624	0.736	0.675	0.695	0.591
NCI-H1734	0.657	0.68	0.619	0.588	0.745	0.49	0.539	0.497	0.48	0.481	0.8	0.832	0.85	0.818	0.667	0.522	0.655	0.575	0.544	0.563
NCI-H1651	0.604	0.663	0.674	0.618	0.652	0.588	0.481	0.71	0.578	0.936	1.19	1.03	1.15	0.974	0.928	0.391	0.544	0.438	0.39	0.444
PC-3 [JPC-3]	0.715	0.736	0.74	0.784	0.759	0.856	0.895	0.84	0.754	0.787	0.829	0.929	–	0.784	0.868	0.633	0.888	0.859	0.798	–
NCI-H1915	0.596	0.71	0.612	0.656	0.643	0.247	0.263	0.256	0.265	0.269	0.778	0.823	0.801	0.732	0.769	0.769	0.721	0.804	0.678	0.725
ChaGo-K-1	0.485	0.543	0.622	0.541	0.47	0.538	0.524	0.512	0.469	0.481	0.823	1.28	0.972	0.562	1.04	0.927	0.943	0.872	0.857	0.868
HOP-62	0.829	0.992	0.826	0.854	0.844	0.236	0.203	0.201	0.251	0.243	1.13	0.987	1.07	1.05	1.13	0.629	0.798	0.441	0.428	0.633
NCI-H1975	0.673	0.79	0.687	0.676	0.669	0.402	0.427	0.419	0.379	0.4	1.25	1.09	1.22	1.01	1.05	0.673	0.828	0.678	0.682	0.683
BEN	0.295	0.293	0.326	0.282	0.319	0.707	0.734	0.709	0.711	0.92	0.05	0.0759	0.0381	0.213	0.0541	0.624	0.891	0.773	0.59	0.746
EMC-BAC-2	0.365	0.512	0.381	0.413	0.421	0.973	0.961	0.961	1.01	0.973	1.16	1.36	1.2	1.14	1.22	0.95	1.26	1.13	1.13	1.11
NCI-H441	0.616	0.563	0.536	0.631	0.783	0.224	0.258	0.224	0.232	0.27	–	0.508	0.393	0.578	0.662	1.64	1.43	1.44	0.826	1.1
NCI-H727	0.57	0.604	0.744	0.545	0.888	0.854	0.765	0.97	–	1.13	0.355	0.408	0.463	0.441	0.507	0.509	0.796	0.539	0.651	0.661

— the supplement of paper PMC10307832
